Measured values taken from patent publication US4861788A, “Antibacterial 1-normon-2-yl-heterocyclic compounds” (Beecham Group plc, priority 1983, dated 1989).
Values after ≈ are worked out from the molar mass of the structure shown. Where two headings read alike, the source gives them in different places.

Key:
M. hyopneumoniae Str. 11 = assay: MIC against Mycoplasma in vitro (Friis broth with agarose); format: cell-based; conditions: Mesomycoplasma hyopneumoniae
M. pneumoniae ATCC 15492 = assay: as above; format: cell-based; conditions: Mycoplasmoides pneumoniae, ATCC15492, 144 h; M. pneumoniae ATCC 15492; 6 days at 37° C; read-out: MIC
[1] = system: Strep. suis (group D) SPS11; assay: MIC against veterinary bacteria in vitro (Diagnostic Sensitivity Test Agar); conditions: Streptococcus suis, 18 h
Protocol: (§1) The activity of the normonyl derivatives of the Examples against various veterinarily important bacteria, was assayed in vitro using two-fold serial dilutions in Diagnostic Sensitivity Test Agar inoculated with 10^4 organisms.

M. gallisepticum S6 = assay: MIC against Mycoplasma in vitro (Friis broth with agarose); format: cell-based; conditions: Mycoplasmoides gallisepticum, 144 h; M. gallisepticum S6; 6 days at 37° C; read-out: MIC
Bord. bronchiseptica B08 = assay: MIC against veterinary bacteria in vitro (Diagnostic Sensitivity Test Agar); conditions: Bordetella bronchiseptica, B08, 18 h
Protocol: as §1

M. dispar NCTC 10125 = assay: MIC against Mycoplasma in vitro (Friis broth with agarose); format: cell-based; conditions: 144 h
[2] = system: M. bovigenitalium ATCC 14173; assay: as above; format: cell-based; conditions: 144 h
M. hyorhinis ATCC 25021 = assay: as above; format: cell-based; conditions: Mesomycoplasma hyorhinis, ATCC25021, 144 h
[3] = system: Staph. aureus B4 (pen. resistant); assay: MIC against veterinary bacteria in vitro (Diagnostic Sensitivity Test Agar); conditions: Staphylococcus aureus, 18 h
Protocol: as §1

M. hyorhinis ATCC 23234 = assay: MIC against Mycoplasma in vitro (Friis broth with agarose); format: cell-based; conditions: Mesomycoplasma hyorhinis, ATCC23234, 144 h
Past. haemolytica PA5 = assay: MIC against veterinary bacteria in vitro (Diagnostic Sensitivity Test Agar); conditions: Mannheimia haemolytica, PA5, 18 h
Protocol: as §1

S. typhimurium S18 = assay: as above; conditions: Salmonella enterica, 18 h
Protocol: as §1

[4] = system: Neisseria catarrhalis 1502; assay: MIC against human bacteria in vitro (nutrient agar, chocolated horse blood); format: cell-based
Procedure, shortened: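 Compounds were tested in vitro by serial dilution in nutrient agar containing 5% chocolated horse blood, and the MIC was read as the lowest inhibitory concentration.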

Staph. aureus Oxford = assay: MIC against veterinary bacteria in vitro (Diagnostic Sensitivity Test Agar); conditions: Staphylococcus aureus, 18 h
Protocol: as §1

M. hyopneumoniae HK (2) = assay: MIC against Mycoplasma in vitro (Friis broth with agarose); format: cell-based; conditions: Mesomycoplasma hyopneumoniae, 144 h
Past. multocida PA1 = assay: MIC against veterinary bacteria in vitro (Diagnostic Sensitivity Test Agar); conditions: Pasteurella multocida, PA1, 18 h
Protocol: as §1

B. subtilis ATCC 6633 = assay: as above; conditions: Bacillus subtilis, ATCC6633, 18 h
Protocol: as §1

M. hyopneumoniae JF 435 = assay: MIC against Mycoplasma in vitro (Friis broth with agarose); format: cell-based; conditions: Mesomycoplasma hyopneumoniae, JF435, 144 h
Past. multocida PA2 = assay: MIC against veterinary bacteria in vitro (Diagnostic Sensitivity Test Agar); conditions: Pasteurella multocida, PA2, 18 h
Protocol: as §1

Strep. dysgalactiae SPD1 = assay: as above; conditions: Streptococcus dysgalactiae, SPD1, 18 h
Protocol: as §1

M. hyopneumoniae LABER = assay: MIC against Mycoplasma in vitro (Friis broth with agarose); format: cell-based; conditions: Mesomycoplasma hyopneumoniae, 144 h
M. hyopneumoniae MS 16 = assay: as above; format: cell-based; conditions: Mesomycoplasma hyopneumoniae, MS16, 144 h; M. hyopneumoniae MS 16; 6 days at 37° C; read-out: MIC
[5] = system: M. hyopneumoniae PW/C/210; assay: as above; format: cell-based; conditions: Mesomycoplasma hyopneumoniae, 144 h; M. hyopneumoniae PW/C/210; 6 days at 37° C; read-out: MIC
M. hyopneumoniae NB12 = assay: as above; format: cell-based; conditions: Mesomycoplasma hyopneumoniae, 144 h; M. hyopneumoniae NB12; 6 days at 37° C; read-out: MIC
[6] = 144 h, M. hyopneumoniae Str. 11, 6 days at 37° C, read-out: MIC
[7] = M. dispar NCTC 10125, 6 days at 37° C, read-out: MIC
[8] = M. bovigenitalium ATCC 14173, 6 days at 37° C, read-out: MIC
[9] = M. hyorhinis ATCC 25021, 6 days at 37° C, read-out: MIC
[10] = M. hyorhinis ATCC 23234, 6 days at 37° C, read-out: MIC
[11] = M. hyopneumoniae HK (2), 6 days at 37° C, read-out: MIC
[12] = M. hyopneumoniae JF 435, 6 days at 37° C, read-out: MIC

Structure (SMILES)	MIC (M. hyopneumoniae Str. 11; [6]) [µg/mL]	MIC (M. pneumoniae ATCC 15492) [µg/mL]	MIC [1] [µg/mL]	MIC (M. gallisepticum S6) [µg/mL]	MIC (Bord. bronchiseptica B08) [µg/mL]	MIC (M. dispar NCTC 10125; [7]) [µg/mL]	MIC [2, 8] [µg/mL]	MIC (M. hyorhinis ATCC 25021; [9]) [µg/mL]	MIC [3] [µg/mL]	MIC (M. hyorhinis ATCC 23234; [10]) [µg/mL]	MIC (Past. haemolytica PA5) [µg/mL]	MIC (S. typhimurium S18) [µg/mL]	MIC (Staph. aureus Oxford) [µg/mL]	MIC (M. hyopneumoniae HK (2); [11]) [µg/mL]	MIC (Past. multocida PA1) [µg/mL]	MIC (B. subtilis ATCC 6633) [µg/mL]	MIC (M. hyopneumoniae JF 435; [12]) [µg/mL]	MIC (Past. multocida PA2) [µg/mL]	MIC (Strep. dysgalactiae SPD1) [µg/mL]	MIC (M. hyopneumoniae Str. 11; STR.11, 144 h) [µg/mL]	further results
CC(=Cc1nnc(-c2ccco2)o1)CC1OCC(CC2OC2C(C)C(C)O)C(O)C1O (stereo not shown) [Example 8, 2-(2-Furyl)-5-(1-normon-2-yl)-1,3,4-oxadiazole A]	5 (≈ 11.5 µM)	> 10	> 80	> 10	> 80	1 (≈ 2.3 µM)	0.5 (≈ 1.15 µM)	2.5 (≈ 5.75 µM)	20 (≈ 46 µM)	2.5 (≈ 5.75 µM)	40 (≈ 92.1 µM)	> 80	80 (≈ 184 µM)	10 (≈ 23 µM)	1.25 (≈ 2.88 µM)	10 (≈ 23 µM)	10 (≈ 23 µM)	0.625 (≈ 1.44 µM)	40 (≈ 92.1 µM)		MIC ([4]; human, Neisseria catarrhalis 1502, 18 hours at 37° C, read-out: MIC): 0.5 µg/mL (≈ 1.15 µM)
CC(=Cc1nnc(-c2ccc(N(C)C)cc2)o1)CC1OCC(CC2OC2C(C)C(C)O)C(O)C1O (stereo not shown) [Example 10, 2-(4-Dimethylaminophenyl)-5-(1-normon-2-yl)-1,3,4-oxadiazole A]		10 (≈ 20.5 µM)	> 80	> 10	> 80				5 (≈ 10.3 µM)		40 (≈ 82 µM)	> 80	20 (≈ 41 µM)		40 (≈ 82 µM)	5 (≈ 10.3 µM)		5 (≈ 10.3 µM)	80 (≈ 164 µM)	1 (≈ 2.05 µM)	MIC (M. dispar NCTC 10125): 0.5 µg/mL (≈ 1.03 µM); MIC [2]: 1 µg/mL (≈ 2.05 µM); MIC (M. hyorhinis ATCC 25021): 1 µg/mL (≈ 2.05 µM); MIC (M. hyorhinis ATCC 23234): 1 µg/mL (≈ 2.05 µM); MIC ([4]; Neisseria, 1502, 18 h): 0.5 µg/mL (≈ 1.03 µM); MIC (M. hyopneumoniae HK (2)): 5 µg/mL (≈ 10.3 µM); MIC (M. hyopneumoniae JF 435): 1 µg/mL (≈ 2.05 µM)
CC(=Cc1nc(-c2ccccc2)no1)CC1OCC(CC2OC2C(C)C(C)O)C(O)C1O (stereo not shown) [Example 15, 5-(1-Normon-2-yl)-3-phenyl-1,2,4-oxadiazole A]	5 (≈ 11.2 µM)	> 10	> 80	> 10	> 80	2.5 (≈ 5.62 µM)	0.5 (≈ 1.12 µM)	2.5 (≈ 5.62 µM)	5 (≈ 11.2 µM)	5 (≈ 11.2 µM)	> 80	> 80	40 (≈ 90 µM)	10 (≈ 22.5 µM)	40 (≈ 90 µM)		10 (≈ 22.5 µM)		10 (≈ 22.5 µM)		MIC (M. hyopneumoniae LABER; M. hyopneumoniae LABER, 6 days at 37° C, read-out: MIC): 5 µg/mL (≈ 11.2 µM); MIC (M. hyopneumoniae MS 16): 5 µg/mL (≈ 11.2 µM); MIC [5]: 5 µg/mL (≈ 11.2 µM); MIC (M. hyopneumoniae NB12): 10 µg/mL (≈ 22.5 µM)
CC(=Cc1nc(-c2ccc([N+](=O)[O-])cc2)no1)CC1OCC(CC2OC2C(C)C(C)O)C(O)C1O (stereo not shown) [Example 16, 5-(1-Normon-2-yl)-3-(4-nitrophenyl)-1,2,4-oxadiazole]		> 10	80 (≈ 163 µM)	> 10	80 (≈ 163 µM)		0.5 (≈ 1.02 µM)	0.25 (≈ 0.511 µM)	1.25 (≈ 2.55 µM)	0.25 (≈ 0.511 µM)	20 (≈ 40.9 µM)	> 80	2.5 (≈ 5.11 µM)		5 (≈ 10.2 µM)	2.5 (≈ 5.11 µM)	1 (≈ 2.04 µM)		10 (≈ 20.4 µM)	0.25 (≈ 0.511 µM)	MIC (M. hyopneumoniae LABER): 0.25 µg/mL (≈ 0.511 µM); MIC (M. dispar NCTC 10125): 0.1 µg/mL (≈ 0.204 µM)
CC(=Cc1noc(-c2ccccc2)n1)CC1OCC(CC2OC2C(C)C(C)O)C(O)C1O (stereo not shown) [Example 17, 3-(1-Normon-2-yl)-5-phenyl-1,2,4-oxadiazole]	1 (≈ 2.25 µM)	> 10	20 (≈ 45 µM)	10 (≈ 22.5 µM)	> 80	0.5 (≈ 1.12 µM)		2.5 (≈ 5.62 µM)	1.25 (≈ 2.81 µM)	2.5 (≈ 5.62 µM)	80 (≈ 180 µM)	> 80	2.5 (≈ 5.62 µM)		2.5 (≈ 5.62 µM)	0.625 (≈ 1.41 µM)	5 (≈ 11.2 µM)		2.5 (≈ 5.62 µM)		MIC [2]: 0.1 µg/mL (≈ 0.225 µM); MIC (M. hyopneumoniae MS 16): 1 µg/mL (≈ 2.25 µM)
